Measured values as given in article PMC12724231, “APC24-7, a covalent combination of boronic acid and chelator moieties, restores β-lactam efficiency against metallo-β-lactamase-producers” (mSphere, 2025).

Columns and labels:
Escherichia coli MP21-05 = tested on: T1, Escherichia coli MP21-05; experiment: microbe, parasite or virus in culture; parameters: species or system E. coli E. cloni 10G; Microdilution MIC of inhibitor alone in LB, OD600 read-out, E. coli 10G without or with empty vector; settings: MP2105, inhibitor alone, read-out: MIC APC24-7
T1 construct: MP21-05
Description: (§1) Susceptibility testing of isogenic E. coli E. cloni 10G (Table 2) was determined by both the microdilution assay. […] Overnight cultures were prepared in LB supplemented with 25 mg/L chloramphenicol at 37°C under shaking at 700 rpm. The overnight cultures were diluted in PBS to 10^6 CFU/ mL, followed by inoculation in LB to ~10^5 CFU in 384-well plates (VWR, Radnor, PA, USA). Plates were prepared with twofold increasing concentrations of meropenem and cefepime ([…], respectively) to a total inoculated volume of 100 µL Plates were incubated at 37°C without shaking for 19–21 h. OD600 was determined in a SpectraMax Plus plate reader (Molecular Devices).

Escherichia coli MP32-64 = tested on: T2, Escherichia coli MP32-64; experiment: microbe, parasite or virus in culture; parameters: species or system E. coli E. cloni 10G; Microdilution MIC of inhibitor alone in LB, OD600 read-out, E. coli 10G without or with empty vector; settings: MP3264, inhibitor alone, read-out: MIC APC24-7
T2 construct: MP32-64
Description: as §1

OXA-48 = OXA-48 (Klebsiella pneumoniae, UniProt Q6XEC0); experiment: biochemical; parameters: Residual beta-lactamase activity; meropenem (NDM-1, 300 nm) or nitrocefin (others, 480 nm) hydrolysis, 1 uM Zn2+ (OXA-48: bicarbonate)
Sequence of OXA-48 (Q6XEC0 23-265 limits assumed): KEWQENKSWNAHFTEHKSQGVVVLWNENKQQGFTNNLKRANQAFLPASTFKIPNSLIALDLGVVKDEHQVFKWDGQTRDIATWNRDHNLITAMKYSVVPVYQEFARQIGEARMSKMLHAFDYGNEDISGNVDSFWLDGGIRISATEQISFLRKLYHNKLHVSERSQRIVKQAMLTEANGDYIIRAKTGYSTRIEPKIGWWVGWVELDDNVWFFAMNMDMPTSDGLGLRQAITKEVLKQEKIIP
Description: (§2) IC50 determination with purified enzymes was performed as previously described ([40]). In brief, enzymes were diluted in 50 mM HEPES, pH 7.5, supplemented with 1 µM Zn^2+. For OXA-48, 50 mM HEPES, pH 7.5, was supplemented with 50 mM sodium bicarbonate buffer solution (Sigma Aldrich). Enzymes and inhibitors were mixed at various inhibitor concentrations, and absorbance was measured by spectrophotometry (Table S5). For NDM-1 and MBP-NDM-9, the hydrolysis of meropenem (24 µM) was monitored at 300 nm using UV- transparent 96-well plates (Corning, Kennebunk, ME). For all other enzymes, nitrocefin (24 µM, Millipore Sigma, USA) hydrolysis was monitored at 480 nm. The residual enzyme activity at various inhibitor concentrations was calculated in comparison to the initial reaction velocity of the inhibitor-free […] control. Dose-response curves were fitted using nonlinear regression in GraphPad Prism v. 10.5.0. All tests were performed at least in duplicates at 25°C.

NDM-1 = target: T3, NDM-1 (Klebsiella pneumoniae, UniProt C7C422); experiment: biochemical; parameters: Residual beta-lactamase activity; meropenem (NDM-1, 300 nm) or nitrocefin (others, 480 nm) hydrolysis, 1 uM Zn2+ (OXA-48: bicarbonate)
T3 construct: gene blaNDM-1
T3 sequence (C7C422 29-270 limits assumed): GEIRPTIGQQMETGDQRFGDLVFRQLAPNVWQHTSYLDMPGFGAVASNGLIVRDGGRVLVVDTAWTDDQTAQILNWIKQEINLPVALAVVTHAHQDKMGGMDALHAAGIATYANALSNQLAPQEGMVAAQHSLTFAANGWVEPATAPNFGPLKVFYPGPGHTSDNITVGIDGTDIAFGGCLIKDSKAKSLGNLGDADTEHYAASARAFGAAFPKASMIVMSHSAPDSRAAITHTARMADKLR
Description: as §2

VIM-7 = VIM-7 (Pseudomonas aeruginosa, UniProt Q840P9); experiment: biochemical; parameters: Residual beta-lactamase activity; meropenem (NDM-1, 300 nm) or nitrocefin (others, 480 nm) hydrolysis, 1 uM Zn2+ (OXA-48: bicarbonate)
Sequence of VIM-7 (Q840P9 18-265): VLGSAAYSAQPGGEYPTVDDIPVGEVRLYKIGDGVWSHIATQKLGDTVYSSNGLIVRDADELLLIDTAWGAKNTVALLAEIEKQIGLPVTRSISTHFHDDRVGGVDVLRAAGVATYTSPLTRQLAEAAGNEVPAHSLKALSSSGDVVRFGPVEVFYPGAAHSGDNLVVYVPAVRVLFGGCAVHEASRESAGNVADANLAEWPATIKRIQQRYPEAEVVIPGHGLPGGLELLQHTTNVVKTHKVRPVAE
Description: as §2

[1] = tested on: T4, Escherichia coli BAA-2469™; experiment: microbe, parasite or virus in culture; parameters: species or system clinical isolates of E. coli and K. pneumoniae; settings: Escherichia coli, BAA2469; inhibitor alone; read-out: MIC APC24-7
T4 construct: ATCC BAA-2469
Description: (§3) MICs for clinical isolates were determined in a broth microdilution assay according to Clinical and Laboratory Standards Institute (CLSI) ([75]), using cation-adjusted Mueller-Hinton broth (Thermo Fisher Scientific, Lenexa, USA). The direct colony suspension method was utilized by preparing an inoculum of an OD600 0.17, except for E. coli #36 in which 0.10 was used, which equated to a concentration of 10^8 colony-forming units (CFU) per mL. Inoculum controls were included for all assays ([76]). […] Subsequently, we aimed to identify a potent β-lactam/APC24-7 combination capable of reversing β-lactamase-mediated BL resistance in our clinical isolates. All 16 isolates were exposed to increasing concentrations of meropenem (carbapenem), aztreonam (monobactam), ceftazidime and cefepime (cephalosporins), as well as amoxicillin (penicillin), both in the absence and presence of 57 µM (32 mg/L) of APC24-7. The effectiveness of these combinations was assessed based on their ability to resensitize the clinical isolates according to the clinical breakpoints (EUCAST clinical breakpoint table version 15.0, www.eucast.org).

[2] = tested on: T5, Klebsiella pneumoniae K46-62; experiment: microbe, parasite or virus in culture; parameters: species or system clinical isolates of E. coli and K. pneumoniae; settings: Klebsiella pneumoniae, K4662; inhibitor alone; read-out: MIC APC24-7
T5 construct: K46-62
Description: as §3

[3] = tested on: T6, Klebsiella pneumoniae BAA1705™; experiment: microbe, parasite or virus in culture; parameters: species or system clinical isolates of E. coli and K. pneumoniae; settings: Klebsiella pneumoniae, BAA1705; inhibitor alone; read-out: MIC APC24-7
T6 construct: ATCC BAA-1705
Description: as §3

[4] = tested on: T7, Klebsiella pneumoniae BAA-2146™; experiment: microbe, parasite or virus in culture; parameters: species or system clinical isolates of E. coli and K. pneumoniae; settings: Klebsiella pneumoniae, BAA2146; inhibitor alone; read-out: MIC APC24-7
T7 construct: ATCC BAA-2146
Description: as §3

VIM-2 = target: T8, VIM-2 (Pseudomonas aeruginosa, UniProt Q9K2N0); parameters: Residual beta-lactamase activity; meropenem (NDM-1, 300 nm) or nitrocefin (others, 480 nm) hydrolysis, 1 uM Zn2+ (OXA-48: bicarbonate); settings: inhibitor
T8 construct: gene blaVIM-2
Description: as §2

Structure (SMILES): O=C(N[C@H]1Cc2cccc(C(=O)O)c2OB1O)c1ccc(CNCCN(Cc2ccccn2)Cc2ccccn2)cc1 [APC24-7]
- MIC (Escherichia coli MP21-05): > 906 µM
- MIC (Escherichia coli MP32-64): > 906 µM
- IC50 (OXA-48): 420 nM
- IC50 (NDM-1): 140 nM
- IC50 (VIM-7): 1080 nM
- MIC [1]: > 906 µM
- MIC [2]: > 906 µM
- MIC [3]: > 906 µM
- MIC [4]: > 906 µM
- IC50 (VIM-2): 110 nM
